pKd: −log10 of the molar value.
Tests used:
[1] = target: T1, α1-acid glycoprotein (AGP) (Homo sapiens, UniProt P02763); assay: Fluorescence titration
Description: Fluorescence spectra were collected using an emission detector module of the ChirascanPlus spectropolarimeter (APL), fixing the PMU of the detector at 600 mV. For every measurement, a 1 cm quartz cell, which is suitable for CD and fluorescence, was used. Experimental details: 1 cm cell pathlength, 500–310 nm emission scan, λexc 305 nm, and 5 nm excitation bandwidth.

[2] = target: T1, α1-acid glycoprotein (AGP); assay: in vitro; details: isolated α1-acid glycoprotein (AGP) in solution
Procedure: SRCD single-spectra and UV denaturation experiments were recorded on the module B unit at B23 (Diamond Light Source, Didcot, UK) using a 6-cell sample turret. The following are the experimental parameters for UV denaturation: 30 scans, 260–180 nm range, 0.5 mm slit, 1 s integration time, 1 nm increment. The thermal denaturation experiments were performed with an Applied Photophysics (APL) ChirascanPlus spectropolarimeter. […] The baseline of water or buffer was subtracted from the CD spectra of proteins with or without ligands. Far-UV (180–250 nm) denaturation SRCD measurements were collected in 0.02 cm rotating cells with a 70 μL volume. Thermal denaturations were recorded with both B23 beamline and ChirascanPlus (APL, Leatherhead, UK). For CD titration, the protocol used was to measure the CD spectrum of each protein–ligand mixture at various ligand molar ratios by adding a small aliquot of ligand (few microliters of an appropriate concentration of ligand stock solution) to the protein in the cuvette cell. […] The same method was used for the titration via fluorescence spectroscopy.
The CD spectra were processed using CD Apps [27] and OriginPro. […] The evaluated parameters of melting temperature (Tm) were reported in °C and half-live (t1/2) for photo degradation in s (y = A1exp (−x/t1) + y0, t1/2 = t1log2). […]

[3] = target: T2, human serum albumin (HSA) (Homo sapiens, UniProt P02768); assay: Thermal denaturation followed by CD at 191 nm; assay type: binding; details: HSA with ligand
T2 construct: purchased Sigma A3782
Procedure: (§1) The Hill fitting was performed with OriginLab.
(§2) The evaluation of molar enthalpies (ΔHm) and entropies (ΔSm) at the melting temperature for the melting process was calculated assuming a two-state native-to-unfolded model. The molar ratios at different temperatures were determined using the linear extrapolations of plateau at T >> Tm and T << Tm for the Boltzmann fitting curves, assuming that only denatured protein was present at T >> Tm and only native at T << Tm. The reversibility was assumed to be around Tm ± 5 °C, and the relative molar ratios for native and denatured species was used to determine the equilibrium constants and the associated Gibbs free energy (ΔGm, from ΔGm = −RT·lnK). Following the given relationship, ΔGm was supposed to be ~0 at the Tm (K^(Tm) ~ 1). ΔHm and ΔSm were calculated at Tm by interpolating with a linear model the ±5 °C region of the ΔGm vs. T curve around Tm, assuming the intercept corresponding to ΔHm, previous correction from °C to Kelvin, and the slope to −ΔSm, assuming a y = a − bx model, where ΔGm^(Tm) = ΔHm^(Tm) − TmΔSm^(Tm) at ΔGm^(Tm) = 0.
(§3) For the thermal denaturations, Boltzmann fitting with the equation y = y0 + A * (frac/(1 + exp ((x − x01)/k1)) + (1 − frac)/(1 + exp((x − x02)/k2))) was used. The SRCD spectra as a function of temperature were recorded with B23 module B with synchrotron operation at 300 or 350 mA, using rotating cell for thermal denaturation with 0.02 cm cell pathlength, 0.5 mm slit, 1 sec integration time, and 1 nm increment in the 260–180 nm spectral region.

[4] = target: T1, α1-acid glycoprotein (AGP); assay type: binding
Procedure: as §1, §2, §3

T1 sequence (P02763 19-201): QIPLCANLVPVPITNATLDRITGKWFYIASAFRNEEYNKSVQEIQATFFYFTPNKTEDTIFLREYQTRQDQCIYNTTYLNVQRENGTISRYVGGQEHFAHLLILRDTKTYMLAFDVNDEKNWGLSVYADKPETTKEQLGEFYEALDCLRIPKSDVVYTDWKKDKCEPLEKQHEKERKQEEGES
T2 sequence (P02768 25-609): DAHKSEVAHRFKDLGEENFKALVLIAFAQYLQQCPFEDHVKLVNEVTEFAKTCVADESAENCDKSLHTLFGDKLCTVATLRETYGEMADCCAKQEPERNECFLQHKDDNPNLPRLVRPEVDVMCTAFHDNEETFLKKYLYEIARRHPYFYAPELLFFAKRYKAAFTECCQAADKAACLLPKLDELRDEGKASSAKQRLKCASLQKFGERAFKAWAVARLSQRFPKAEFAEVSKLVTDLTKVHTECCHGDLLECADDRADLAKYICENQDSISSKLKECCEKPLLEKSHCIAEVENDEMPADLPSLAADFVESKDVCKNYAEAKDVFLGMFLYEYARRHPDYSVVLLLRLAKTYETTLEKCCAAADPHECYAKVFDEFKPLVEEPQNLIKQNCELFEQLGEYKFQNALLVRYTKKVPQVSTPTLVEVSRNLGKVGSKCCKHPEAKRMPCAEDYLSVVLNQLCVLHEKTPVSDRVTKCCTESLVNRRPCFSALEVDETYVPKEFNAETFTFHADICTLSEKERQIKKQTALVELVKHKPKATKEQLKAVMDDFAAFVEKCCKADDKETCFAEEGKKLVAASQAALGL

Compound	pKd [1]	pKd ([1]; isolated α1-acid glycoprotein (AGP) in solution)	pKd [2]	Tm (°C) [A] ([3]; Boltzmann fitting of experimental data, 191 nm, HSA alone 74.1)	Tm (°C) [B] ([3]; T at which ΔGm,Tm = 0, 191 nm, HSA alone 67.3)	ΔHm, Tm ([3]; linear fitting around Tm, HSA alone 85.8)	ΔSm, Tm ([3]; linear fitting around Tm, HSA alone 252.3)	Tm (°C) [B] [4]	ΔHm, Tm ([4]; AGP with ligand, linear fitting around Tm, AGP alone 127.8)	ΔSm, Tm ([4]; AGP with ligand, linear fitting around Tm, AGP alone 392.1)
Cc1c(N)nc([C@H](CC(N)=O)NC[C@H](N)C(N)=O)nc1C(=O)N[C@H](C(=O)N[C@H](C)[C@@H](O)[C@H](C)C(=O)N[C@H](C(=O)NCCc1nc(-c2nc(C(=O)NCCC[S+](C)C)cs2)cs1)[C@@H](C)O)[C@@H](O[C@@H]1O[C@@H](CO)[C@@H](O)[C@H](O)[C@@H]1O[C@H]1O[C@H](CO)[C@@H](O)[C@H](OC(N)=O)[C@@H]1O)c1c[nH]cn1 [A2, bleomycin A2]	4.88	–	–	–	–	–	–	–	–	–
Cc1c(N)nc([C@H](CC(N)=O)NC[C@H](N)C(N)=O)nc1C(=O)N[C@H](C(=O)N[C@H](C)[C@@H](O)[C@H](C)C(=O)N[C@H](C(=O)NCCc1nc(-c2nc(C(=O)NCCCCNC(=N)N)cs2)cs1)[C@@H](C)O)[C@@H](O[C@@H]1O[C@@H](CO)[C@@H](O)[C@H](O)[C@@H]1O[C@H]1O[C@H](CO)[C@@H](O)[C@H](OC(N)=O)[C@@H]1O)c1c[nH]cn1 [B2, bleomycin B2]	–	4.86	5.86	65.0 °C	62.2 °C	91.0 kJ^.mol^−1	271.6 J·K^−1·mol^−1	51.7 °C	122.3 kJ^.mol^−1	376.5 J·K^−1·mol^−1
